Some test systems named below: BT-549; CAKI-1; CCRF-CEM; DU-145; HCT-15; HL-60; KM12; LOX IMVI; MDA-N; NCI-H522; OVCAR-4; SF-295; SF-539; SK-MEL-2; SK-OV-3; SW-620; U-251; UO-31; HOP-62.
Holding throughout (test): inhibition of tumour cell growth, NCI panel, 48 h

Data on twelve compounds can be found in ChEMBL document CHEMBL1201862, “PubChem BioAssay data set” (2004).

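Five concentrations, 48 hours, 96-well plates. The concentration for 50% growth inhibition is given as GI50.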 The source made the active and inactive calls. No stated cut-off is given here; in the data, active = GI50 up to about 1.1 µM and inactive = higher.

With `COc1cc2c(cc1O)C1CC(CC3CCCCN31)OC(=O)/C=C\c1ccc(O)c-2c1` (stereo unspecified), the GI50 with BT-549 is 27.9 µM (inactive); in the assay on CAKI-1 it was 23.1 µM (inactive); with CCRF-CEM, 30.1 µM (inactive); in the assay with DU-145 it was 27.7 µM (inactive); in the assay with HCT-15 it was 36.9 µM; in the assay on HL-60, 27.8 µM (inactive). In addition, the GI50 with KM12 was 16.4 µM (inactive); in the assay on LOX IMVI, 16.7 µM (inactive); with MDA-N, 35.9 µM (inactive); in the assay on NCI-H522 it was 26.5 µM (inactive); with OVCAR-4, 27.3 µM (inactive); in the assay on SF-295 it was 13.5 µM (inactive). For the same compound, the GI50 in the assay with SF-539 is 15.8 µM (inactive); in the assay on SK-MEL-2, 26.5 µM (inactive); with SK-OV-3, 31.2 µM (inactive); in the assay on SW-620 it was 51.2 µM (inactive); with U-251, 35 µM (inactive); with UO-31 it was 25.9 µM (inactive).
As for `CO[C@H]1C=C[C@]23c4cc5c(cc4CN(CC2O)[C@@H]3C1)OCO5` (stereo partly specified), the GI50 is 2.36 µM (inactive) with BT-549; 3.59 µM (inactive) in the assay on CAKI-1; 0.314 µM (active) with CCRF-CEM; 0.668 µM (active) in the assay on DU-145; 1.91 µM in the assay on HCT-15; 0.179 µM (active) in the assay with HL-60. Further, the GI50 is 3.09 µM (inactive) in the assay with KM12; 2.18 µM (inactive) in the assay with LOX IMVI; 3.93 µM (inactive) in the assay on MDA-N; 1.72 µM (inactive) in the assay with NCI-H522; 1.78 µM (inactive) in the assay on OVCAR-4; 0.375 µM (active) with SF-295. Also, the GI50 is 2.59 µM (inactive) in the assay with SF-539; 1.08 µM (active) with SK-MEL-2; 0.388 µM (active) in the assay with SK-OV-3; 3.03 µM (inactive) in the assay with SW-620; 2.51 µM (inactive) with U-251; 2.04 µM (inactive) in the assay with UO-31.
On to `CCOC(=O)c1[nH]c2cccc3c2c1CC[C@H](NC(=O)C(F)(F)F)C3=O`, for which the GI50 in the assay on BT-549 is 40.4 µM (inactive); in the assay on CAKI-1, 13.9 µM (inactive); in the assay on CCRF-CEM it was > 100 µM (inactive); in the assay on DU-145, > 100 µM (inactive); in the assay on HCT-15 it was above 100 µM; with HL-60, > 100 µM (inactive). In addition, the GI50 with HOP-62 was 24 µM (inactive); in the assay with KM12 it was 61.8 µM (inactive); in the assay on LOX IMVI, 78 µM (inactive); in the assay on MDA-N, 34.5 µM (inactive); in the assay on OVCAR-4, 24.7 µM (inactive); in the assay with SF-295 it was 22.3 µM (inactive). The GI50 is 38.1 µM (inactive) with SF-539; 20 µM (inactive) in the assay on SK-MEL-2; 76.7 µM (inactive) with SW-620; 22.5 µM (inactive) with U-251; > 100 µM (inactive) with UO-31.
`CCCCc1ccc(Nc2nc(N)c3[nH]cnc3n2)cc1`: the GI50 in the assay on BT-549 was 21.5 µM (inactive); in the assay with CAKI-1 it was 15.5 µM (inactive); with CCRF-CEM, 21.7 µM (inactive); with DU-145, 19.2 µM (inactive); in the assay on HCT-15 it was 25 µM; with HL-60 it was 18.7 µM (inactive). Further, the GI50 in the assay on KM12 was 18.3 µM (inactive); in the assay on LOX IMVI it was 18.4 µM (inactive); with MDA-N it was 16.9 µM (inactive); in the assay with NCI-H522, 14.7 µM (inactive); in the assay on OVCAR-4 it was 24.5 µM (inactive); in the assay on SF-295 it was 25.9 µM (inactive). The GI50 in the assay on SF-539 was 18.8 µM (inactive); in the assay with SK-MEL-2, 22.4 µM (inactive); in the assay on SK-OV-3, 20.8 µM (inactive); in the assay on SW-620, 30.3 µM (inactive); with U-251 it was 24.4 µM (inactive); in the assay with UO-31 it was 12.7 µM (inactive).
`Cc1[nH]c2ncn(/N=C/c3ccccc3)c(=N)c2c1Cc1ccccc1`: the GI50 was > 100 µM (inactive) with BT-549; > 100 µM (inactive) in the assay with CAKI-1; > 100 µM (inactive) with CCRF-CEM; > 100 µM (inactive) with DU-145; above 100 µM with HCT-15; > 100 µM (inactive) in the assay with HL-60. Moreover, the GI50 was > 100 µM (inactive) in the assay on HOP-62; 75.7 µM (inactive) in the assay on KM12; 89.9 µM (inactive) in the assay on LOX IMVI; 55.1 µM (inactive) with MDA-N; > 100 µM (inactive) with OVCAR-4; > 100 µM (inactive) with SF-295. Besides, the GI50 was 38.5 µM (inactive) with SF-539; 87.1 µM (inactive) in the assay on SK-MEL-2; > 100 µM (inactive) with SK-OV-3; > 100 µM (inactive) with SW-620; 98.6 µM (inactive) in the assay on U-251; > 100 µM (inactive) with UO-31.
Take `C#CCOC(=O)C(N)CCSC` (stereo unspecified): the GI50 with BT-549, in the assay with CAKI-1, in the assay on CCRF-CEM, with DU-145, in the assay with HL-60 and in the assay on HOP-62 was > 100 µM (inactive) each time. Further, the GI50 with KM12, in the assay on LOX IMVI, in the assay on MDA-N, in the assay with NCI-H522, in the assay with SF-295 and with SK-MEL-2 was > 100 µM (inactive) in each case. Besides, the GI50 with SK-OV-3, in the assay with SW-620, in the assay with U-251 and with UO-31 was > 100 µM (inactive) in each case.
As for `Cn1c(=O)c2c(nc3sc4ncccc4c(=O)n32)n(C)c1=O`, the GI50 is > 100 µM (inactive) in the assay on BT-549; > 100 µM (inactive) in the assay with CAKI-1; > 100 µM (inactive) in the assay on CCRF-CEM; > 100 µM (inactive) with DU-145; above 100 µM in the assay with HCT-15; > 100 µM (inactive) in the assay on HL-60. Also, the GI50 in the assay on HOP-62, in the assay on KM12, in the assay with LOX IMVI, in the assay on MDA-N, with OVCAR-4 and with SF-295 was > 100 µM (inactive) in each case. The GI50 is > 100 µM (inactive) with SF-539; > 100 µM (inactive) in the assay with SK-MEL-2; > 100 µM (inactive) in the assay with SK-OV-3; > 100 µM (inactive) in the assay with SW-620; > 100 µM (inactive) in the assay with U-251; 81.1 µM (inactive) in the assay on UO-31.
For `CN(C)CCNC(=O)c1cccc2nc3cccc(F)c3nc12`, the GI50 with BT-549 was 2.23 µM (inactive); with CAKI-1 it was 0.973 µM (active); in the assay with CCRF-CEM, 1.11 µM (active); in the assay on DU-145 it was 2.47 µM (inactive); in the assay with HCT-15 it was 1.16 µM; in the assay with HL-60 it was 1.48 µM (inactive). The GI50 in the assay on HOP-62 was 1.97 µM (inactive); with KM12, 1.42 µM (inactive); with LOX IMVI, 0.614 µM (active); in the assay with MDA-N, 1.46 µM (inactive); in the assay on NCI-H522, 1.05 µM (active); in the assay with OVCAR-4, 1.47 µM (inactive). The GI50 in the assay with SF-295 is 1.52 µM (inactive); in the assay on SF-539, 1.86 µM (inactive); with SK-MEL-2, 2.13 µM (inactive); in the assay on SW-620, 0.65 µM (active); in the assay on U-251, 1.38 µM (inactive); with UO-31 it was 0.883 µM (active).
Turning to `CC(CN(C)C)C(=O)c1ccccc1C(=O)O` (stereo unspecified), the GI50 with BT-549 is 9.59 µM (inactive); in the assay on CAKI-1, 28.2 µM (inactive); with CCRF-CEM it was 10.1 µM (inactive); in the assay with DU-145 it was 30.2 µM (inactive); with HCT-15 it was 31.6 µM; in the assay on HL-60, 22.7 µM (inactive). Further, the GI50 was 20.6 µM (inactive) in the assay with HOP-62; 30.5 µM (inactive) in the assay on KM12; 33.4 µM (inactive) in the assay on LOX IMVI; 29.5 µM (inactive) with MDA-N; 10.7 µM (inactive) in the assay on NCI-H522; 35.5 µM (inactive) in the assay on OVCAR-4. Moreover, the GI50 in the assay with SF-295 is 41.9 µM (inactive); with SK-MEL-2 it was 15.7 µM (inactive); with SK-OV-3, 39.4 µM (inactive); in the assay with SW-620 it was 29.3 µM (inactive); in the assay with U-251, 16.1 µM (inactive); in the assay with UO-31, 47.2 µM (inactive).
For `Cn1nc(-c2ccccc2)c2c(-c3ccccc3)c3cc(Cl)ccc3nc21`, the GI50 is > 100 µM (inactive) in the assay on BT-549; > 100 µM (inactive) in the assay with CAKI-1; 0.0311 µM (active) in the assay with CCRF-CEM; > 100 µM (inactive) in the assay with DU-145; 12.7 µM in the assay with HCT-15; 18.2 µM (inactive) in the assay with HL-60. The GI50 in the assay with HOP-62 was > 100 µM (inactive); in the assay on KM12, > 100 µM (inactive); in the assay on LOX IMVI it was > 90.4 µM (inactive); with MDA-N, > 100 µM (inactive); in the assay on NCI-H522 it was 45 µM (inactive); in the assay with OVCAR-4, > 100 µM (inactive). Further, the GI50 was 97.1 µM (inactive) with SF-295; > 100 µM (inactive) in the assay with SK-MEL-2; > 100 µM (inactive) in the assay with SK-OV-3; > 100 µM (inactive) in the assay on SW-620; > 100 µM (inactive) in the assay on U-251; > 100 µM (inactive) with UO-31.
Take `c1ccc2c(c1)cc1ccc3cccc4ccc2c1c34`: the GI50 with BT-549 was > 100 µM (inactive); with CAKI-1, > 100 µM (inactive); in the assay with CCRF-CEM it was > 100 µM (inactive); with DU-145, > 100 µM (inactive); in the assay on HCT-15, 6.05 µM; with HL-60 it was > 100 µM (inactive). The GI50 was > 100 µM (inactive) in the assay with HOP-62; 26.2 µM (inactive) in the assay with KM12; > 100 µM (inactive) with LOX IMVI; > 100 µM (inactive) in the assay with MDA-N; > 100 µM (inactive) with NCI-H522; > 100 µM (inactive) in the assay on SF-295. The GI50 with SF-539, in the assay with SK-MEL-2, with SK-OV-3, with SW-620, in the assay with U-251 and in the assay on UO-31 was > 100 µM (inactive) each time.
On to `Cc1ccc2c3c1O[C@H]1c4[nH]c5ccccc5c4C[C@@]4(O)[C@@H](C2)N(C)CC[C@]314`, for which the GI50 was 16.4 µM (inactive) with BT-549; 17.3 µM (inactive) with CAKI-1; 18.3 µM (inactive) with CCRF-CEM; 19.8 µM (inactive) in the assay with DU-145; 17.2 µM with HCT-15; 14.6 µM (inactive) with HL-60. Further, the GI50 is 16.9 µM (inactive) in the assay with KM12; 15.4 µM (inactive) in the assay on LOX IMVI; 17.8 µM (inactive) in the assay on MDA-N; 19.1 µM (inactive) in the assay on NCI-H522; 16.9 µM (inactive) in the assay on OVCAR-4; 15.7 µM (inactive) with SF-539. For the same compound, the GI50 in the assay on SK-MEL-2 was 20.7 µM (inactive); with SW-620 it was 15 µM (inactive); with U-251, 16 µM (inactive); with UO-31, 13.7 µM (inactive).
